A word on the Ki: it is the equilibrium dissociation constant of an inhibitor or competing ligand from its target.

Starred links: 1 amine or outer side, 2 acyl side, 3 side chain; linkers in the order of their positions; H or OH if unused. Non-standard residues stand in square brackets, D forms with d. Residues, ends and D or L forms follow the SMILES beside them. *: point of attachment. PheΨ(PO2HCH2)Gly = O=C(CCP(=O)(O)[C@H](Cc1ccccc1)N[*:1])[*:2]; X5 = O=C([C@H]1CCCN1C[C@H](O)[C@H](Cc1ccccc1)N[*:1])[*:2]; X2 = CC(C)C[C@H](N[*:1])[C@@H](O)CN1CCC[C@@H]1C(=O)[*:2]; X4 = O=C([C@H](Cc1ccccc1)N[*:1])C(F)(F)C(=O)[*:2]; X7 = NC(=O)C[C@H](N[*:1])[C@@H](O)CC(=O)[*:2]; Sta = CC(C)C[C@H](N)[C@@H](O)CC(=O)O; Boc = CC(C)(C)OC(=O)*; Lac = C[C@H](O)C(=O)O

This test deals with Human immunodeficiency virus type 1 protease (Human immunodeficiency virus 1, UniProt Q72874). The experiment in a line: Binding affinity to HIV-1 protease.
For the molecule `CC[C@H](C)[C@H](NC(=O)[C@H]1CCCN1C[C@H](O)[C@H](Cc1ccccc1)NC(=O)[C@H](CC(N)=O)NC(=O)[C@H](CC(C)C)NC(=O)[C@H](CO)NC(C)=O)C(=O)OC` (Ac-SLN[X5]I-OMe), affinity was put at a Ki of 417 nM.
For `CC(C)C[C@H](NC(=O)[C@H](C)NC(=O)C[C@H](O)[C@H](CC(C)C)NC(=O)[C@@H](NC(=O)[C@@H](NC(=O)[C@H](C)O)C(C)C)C(C)C)[C@@H](O)CC(=O)O` (H-[Lac]VV[Sta]A[Sta]-OH), the Ki is 19100 nM.
Next, `CC[C@H](C)[C@H](NC(=O)C[C@H](O)[C@H](CC(N)=O)NC(=O)[C@H](CCC(N)=O)NC(=O)[C@H](CO)NC(=O)[C@@H](N)C(C)C)C(=O)N[C@H](C(=O)O)C(C)C` (H-VSQ[X7]IV-OH): 3720 nM; `CC[C@H](C)[C@H](NC(=O)[C@H]1CCCN1C(=O)[C@H](CO)NC(=O)[C@@H](NC(=O)[C@@H]1CCCN1C(=O)[C@H](Cc1ccccc1)NC(=O)[C@H](CC(N)=O)NC(=O)[C@H](CC(C)C)NC(=O)[C@@H](NC(=O)[C@@H](N)CS)[C@@H](C)O)[C@@H](C)CC)C(=O)O`: 70.8 nM; `CC(C)[C@H](NC(=O)OCc1ccccc1)C(=O)N[C@@H](Cc1ccccc1)C(=O)C(F)(F)CCc1ccccc1` (stereo in doubt; 12): 2.69 nM.
To `COC(=O)[C@@H](NC(=O)[C@@H](NC(=O)C(F)(F)C(=O)[C@H](Cc1ccccc1)NC(=O)[C@H](C)NC(=O)[C@H](C)NC(=O)[C@H](CO)NC(=O)OC(C)(C)C)C(C)C)C(C)C` (Boc-SAA[X4]VV-OMe) belongs 158 nM.
As to `CC(C)(C)OC(=O)N[C@@H](Cc1ccccc1)[C@H](O)C(=O)N[C@@H](CCC(=O)O)C(=O)N[C@@H](Cc1ccccc1)C(=O)O`, the affinity corresponds to a Ki of 3310 nM.
Regarding `CC(C)[C@H](NC(=O)[C@@H](NC(=O)C1CCCN1C[C@H](Cc1ccccc1)NC(=O)[C@H](C)NC(=O)[C@H](C)NC(=O)[C@@H](N)CO)C(C)C)C(N)=O` (single isomer, unassigned), the Ki is 18200 nM.
To `CC(=O)N[C@H](C(=O)N[C@H](C(=O)C[C@@H](Cc1ccccc1)[C@H](O)[C@H](Cc1ccccc1)NC(=O)[C@@H](NC(=O)[C@@H](NC(C)=O)C(C)C)C(C)C)C(C)C)C(C)C` belongs 10 nM; to `CC[C@H](C)[C@H](NC(=O)[C@H]1CCCN1C[C@H](O)[C@H](CC(C)C)NC(=O)[C@H](CC(N)=O)NC(=O)[C@H](CC(C)C)NC(=O)[C@H](CO)NC(C)=O)C(=O)OC` (Ac-SLN[X2]I-OMe), 977 nM.
In turn, `CC(C)[C@H](NC(=O)OCc1ccccn1)C(=O)N[C@@H](Cc1ccccc1)C(=O)C(F)(F)CCc1ccccc1` gave a Ki of 2.19 nM.
Molecule `CCC(C)CNC(=O)[C@H](C(C)C)[C@@H](O)[C@H](O)[C@H](CC(C)C)NC(=O)OCc1ccccc1` (some centres not stated) gave a Ki of 363 nM.
The molecule `CC(C)[C@H](NC(=O)OCc1ccccc1)C(=O)N[C@@H](Cc1ccccc1)C(=O)C(F)(F)CCc1ccccn1` had a Ki of 1.41 nM.
For the molecule `COC(=O)[C@@H](NC(=O)[C@@H](NC(=O)CCP(=O)(O)[C@H](Cc1ccccc1)NC(=O)[C@H](C)NC(=O)[C@H](C)NC(=O)[C@@H](N)CO)C(C)C)C(C)C` (H-SAA[PheΨ(PO2HCH2)Gly]VV-OMe), affinity was put at a Ki of 4370 nM. Against the preceding molecule, the Ki is about 3100-fold higher.
To `CC[C@H](C)[C@H](NC(=O)[C@H]1CCCN1C[C@H](O)[C@H](Cc1ccccc1)NC(=O)[C@H](CC(N)=O)NC(=O)[C@H](CC(C)C)NC(=O)[C@H](CO)NC(C)=O)C(=O)N[C@H](C(=O)OC)C(C)C` (Ac-SLN[X5]IV-OMe) belongs 0.24 nM; to `CC[C@H](C)[C@H](NC(=O)[C@H]1CCCN1C[C@H](O)[C@H](CC(C)C)NC(=O)[C@H](CC(N)=O)NC(=O)[C@H](CC(C)C)NC(=O)[C@H](CO)NC(C)=O)C(=O)N[C@H](C(=O)OC)C(C)C` (Ac-SLN[X2]IV-OMe), 11 nM; to `CC[C@H](C)[C@H](NC(=O)OCc1ccccc1)C(=O)N[C@@H](Cc1ccccc1)[C@@H](O)[C@@H](CC(=O)[C@H](NC(=O)OCc1ccccc1)[C@@H](C)CC)Cc1ccccc1`, 4.9 nM.

The values above are taken from ChEMBL document CHEMBL1127540, “Three-dimensional pharmacophores from binding data” (J Med Chem, 1994).
